Earlier results as cited in Sander's compilation of Henry's law constants.
Values joined by “and” are separate entries in the source; they are usually repeats but may differ in a detail not shown here. Equal entries are not always repeated.

Tests used:
[1] = Henry solubility constant Hcp at 310 K (mol/(m3 Pa)); conditions: cited value
[2] = Henry solubility constant Hcp at 298.15 K (mol/(m3 Pa)); conditions: cited value
[3] = Henry solubility constant Hcp at 293 K (mol/(m3 Pa)); conditions: cited value
[4] = Henry solubility constant Hcp at 311 K (mol/(m3 Pa)); conditions: reference: Orcutt and Seevers (1937b); cited value
[5] = Henry solubility constant Hcp at 295 K (mol/(m3 Pa)); conditions: cited value
[6] = Henry solubility constant Hcp at 277 K (mol/(m3 Pa)); conditions: reference: Roth (1942); cited value
[7] = reference: Burkholder et al. (2015)
[8] = reference: Burkholder et al. (2019)
[9] = reference: Sander et al. (2011)
[10] = reference: Fogg and Sangster (2003)
[11] = reference: Gaffney and Senum (1984)
[12] = reference: Sander et al. (2006)
[13] = reference: Pandis and Seinfeld (1989)
[14] = reference: Nicholson et al. (1984)

## CCOC(C)=O [ethyl ethanoate]
[1]; reference: Nahon et al. (2000)
  Henry solubility constant Hcp at 310 K: 0.039
[2]; reference: Brockbank (2013)
  Henry solubility constant Hcp: 0.065
[2]; [7]
  Henry solubility constant Hcp: 0.059
[2]; [8]
  Henry solubility constant Hcp: 0.065
[2]; [9]
  Henry solubility constant Hcp: 0.059

## [Hg] [mercury]
[3]; reference: WHO (1990)
  Henry solubility constant Hcp at 293 K: 0.0014
[2]; [7]
  Henry solubility constant Hcp: 0.0013
[2]; [8]
  Henry solubility constant Hcp: 0.0013
[2]; reference: Clever (1987)
  Henry solubility constant Hcp: 0.0012
[2]; reference: Clever et al. (1985)
  Henry solubility constant Hcp: 0.0011
[2]; reference: Shon et al. (2005)
  Henry solubility constant Hcp: 0.0012

## CSC [dimethyl sulfide]
[3]; reference: Vitenberg et al. (1975)
  Henry solubility constant Hcp at 293 K: 0.007
[2]; reference: Brockbank (2013)
  Henry solubility constant Hcp: 0.0054
[2]; [7]
  Henry solubility constant Hcp: 0.0053
[2]; [8]
  Henry solubility constant Hcp: 0.0053
[2]; [10]
  Henry solubility constant Hcp: 0.0052
[2]; [11]
  Henry solubility constant Hcp: 0.0061
[2]; [12]
  Henry solubility constant Hcp: 0.0053
[2]; [9]
  Henry solubility constant Hcp: 0.0053

## [N-]=[N+]=O [dinitrogen monoxide]
[1]; reference: Harris (1951)
  Henry solubility constant Hcp at 310 K: 0.00017
[4]
  Henry solubility constant Hcp at 311 K: 0.00017
[3]; reference: Macintosh et al. (1958)
  Henry solubility constant Hcp at 293 K: 0.0003
[3]; reference: Nunn (1958)
  Henry solubility constant Hcp at 293 K: 0.00028
[2]; [7]
  Henry solubility constant Hcp: 0.00024
[2]; [8]
  Henry solubility constant Hcp: 0.00024
[2]; reference: Gordon (1895)
  Henry solubility constant Hcp: 0.00026
[2]; [12]
  Henry solubility constant Hcp: 0.00024
[2]; [9]
  Henry solubility constant Hcp: 0.00024
[2]; reference: Young (1981b)
  Henry solubility constant Hcp: 0.00024

## CC(=O)OO[N+](=O)[O-] [peroxyacetyl nitrate]
[5]; reference: Schwartz (1986)
  Henry solubility constant Hcp at 295 K: 0.036
[2]; [7]
  Henry solubility constant Hcp: 0.028
[2]; [8]
  Henry solubility constant Hcp: 0.028
[2]; [11]
  Henry solubility constant Hcp: 0.036
[2]; reference: Leu and Zhang (1999)
  Henry solubility constant Hcp: 0.029
[2]; [13]
  Henry solubility constant Hcp: 0.029
[2]; [12]
  Henry solubility constant Hcp: 0.028
[2]; [9]
  Henry solubility constant Hcp: 0.028

## O=O [oxygen]
[3]; reference: Nunn (1958)
  Henry solubility constant Hcp at 293 K: 1.4e-05
[2]; reference: Battino (1981)
  Henry solubility constant Hcp: 1.3e-05
[2]; reference: Battino et al. (1983)
  Henry solubility constant Hcp: 1.3e-05
[2]; [7]
  Henry solubility constant Hcp: 1.3e-05
[2]; [8]
  Henry solubility constant Hcp: 1.3e-05
[2]; reference: Himmelblau (1960)
  Henry solubility constant Hcp: 1.2e-05
[2]; [12]
  Henry solubility constant Hcp: 1.3e-05
[2]; [9]
  Henry solubility constant Hcp: 1.3e-05

## BrBr [bromine (molecular)]
[3]; reference: Giona et al. (1969)
  Henry solubility constant Hcp at 293 K: 0.0092
[2]; [7]
  Henry solubility constant Hcp: 0.0072
[2]; [8]
  Henry solubility constant Hcp: 0.0072
[2]; reference: Jenkins and King (1965)
  Henry solubility constant Hcp: 0.0079
[2]; [12]
  Henry solubility constant Hcp: 0.0072
[2]; [9]
  Henry solubility constant Hcp: 0.0072

## ClC(Cl)Br [bromodichloromethane]
[3]; [14]
  Henry solubility constant Hcp at 293 K: 0.0047
[2]; [7]
  Henry solubility constant Hcp: 0.004
[2]; [8]
  Henry solubility constant Hcp: 0.004
[2]; [10]
  Henry solubility constant Hcp: 0.0048
[2]; reference: Goldstein (1982)
  Henry solubility constant Hcp: 0.0046
[2]; [14]
  Henry solubility constant Hcp: 0.0043
[2]; [12]
  Henry solubility constant Hcp: 0.004
[2]; [9]
  Henry solubility constant Hcp: 0.004

## O=CCO [2-hydroxyethanal]
[5]; reference: Lee and Zhou (1993)
  Henry solubility constant Hcp at 295 K: 990

## CCCCCCCC=O [octanal]
[1]; reference: Nahon et al. (2000)
  Henry solubility constant Hcp at 310 K: 0.019
[2]; reference: Brockbank (2013)
  Henry solubility constant Hcp: 0.02

## C#C [ethyne]
[3]; reference: Vtovec (1968)
  Henry solubility constant Hcp at 293 K: 0.00044
[2]; [7]
  Henry solubility constant Hcp: 0.00041
[2]; [8]
  Henry solubility constant Hcp: 0.00041
[2]; reference: Deno and Berkheimer (1960)
  Henry solubility constant Hcp: 0.00041
[2]; reference: Fogg et al. (2002)
  Henry solubility constant Hcp: 0.00041
[2]; [12]
  Henry solubility constant Hcp: 0.00041
[2]; [9]
  Henry solubility constant Hcp: 0.00041
[2]; reference: Schoen (1923)
  Henry solubility constant Hcp: 0.00041

## O=C=O [carbon dioxide]
[3]; reference: Nunn (1958)
  Henry solubility constant Hcp at 293 K: 0.00039
[2]; [7]
  Henry solubility constant Hcp: 0.00034
[2]; [8]
  Henry solubility constant Hcp: 0.00034
[2]; reference: Carroll et al. (1991)
  Henry solubility constant Hcp: 0.00034
[2]; reference: Chen et al. (1979)
  Henry solubility constant Hcp: 0.00034
[2]; reference: Crovetto (1991)
  Henry solubility constant Hcp: 0.00034
[2]; reference: Edwards et al. (1978)
  Henry solubility constant Hcp: 0.00034
[2]; reference: Lelieveld and Crutzen (1991)
  Henry solubility constant Hcp: 0.00034
[2]; [13]
  Henry solubility constant Hcp: 0.00034
[2]; reference: Perry and Chilton (1973)
  Henry solubility constant Hcp: 0.00034
[2]; [12]
  Henry solubility constant Hcp: 0.00033
[2]; [9]
  Henry solubility constant Hcp: 0.00033
[2]; reference: Weiss (1974)
  Henry solubility constant Hcp: 0.00034
[2]; reference: Yoo et al. (1986)
  Henry solubility constant Hcp: 0.00034

## ClC(Br)Br [dibromochloromethane]
[3]; [14]
  Henry solubility constant Hcp at 293 K: 0.011
[2]; [7]
  Henry solubility constant Hcp: 0.0086
[2]; [8]
  Henry solubility constant Hcp: 0.0086
[2]; [10]
  Henry solubility constant Hcp: 0.0087
[2]; reference: Goldstein (1982)
  Henry solubility constant Hcp: 0.012
[2]; [14]
  Henry solubility constant Hcp: 0.012
[2]; [12]
  Henry solubility constant Hcp: 0.0086
[2]; [9]
  Henry solubility constant Hcp: 0.0086

## ClOCl [dichlorine monoxide]
[6]
  Henry solubility constant Hcp at 277 K: 0.07
[2]
  Henry solubility constant Hcp: 0.034 and 0.076

## CCCC(=O)OC [methyl butanoate]
[1]; reference: Nahon et al. (2000)
  Henry solubility constant Hcp at 310 K: 0.036
[2]; reference: Brockbank (2013)
  Henry solubility constant Hcp: 0.039

## CC(=O)CO [1-hydroxypropanone]
[5]; reference: Lee and Zhou (1993)
  Henry solubility constant Hcp at 295 K: 77

## CCCC(=O)OCC [ethyl butanoate]
[1]; reference: Nahon et al. (2000)
  Henry solubility constant Hcp at 310 K: 0.027
[2]; reference: Brockbank (2013)
  Henry solubility constant Hcp: 0.025
